These results are taken from PubChem BioAssay AID1259407 (Chemical Carcinogenesis Research Information System (CCRIS), 2018).

For the series, the system named is CCRIS mutagenicity, Ames/micronucleus/aberration tests. Nature of the series: CCRIS mutagenicity studies.
Setting [1] is: Test System: AMES SALMONELLA TYPHIMURIUM, Strain/Indicator: TA102, Metabolic Activation: NONE, Method: STANDARD PLATE.
[2] abbreviates: Test System: AMES SALMONELLA TYPHIMURIUM, Strain/Indicator: TA98, Metabolic Activation: NONE, Method: STANDARD PLATE.
Where [3] appears, read: Test System: AMES SALMONELLA TYPHIMURIUM, Strain/Indicator: TA100, Metabolic Activation: NONE, Method: STANDARD PLATE.
Setting [4] is: Test System: AMES SALMONELLA TYPHIMURIUM, Strain/Indicator: TA98, Metabolic Activation: S-9, Method: STANDARD PLATE.
Setting [5] is: Test System: AMES SALMONELLA TYPHIMURIUM, Strain/Indicator: TA100, Metabolic Activation: S-9, Method: STANDARD PLATE.

The structures appear in SMILES notation. The source made the active and inactive calls. No rule for the calls is given here.

Regarding `Nc1ncnc2c1ncn2-c1ccc([N+](=O)[O-])cc1[N+](=O)[O-]`, the mutagenic call was “inactive; negative” (Test System: AMES SALMONELLA TYPHIMURIUM, Strain/Indicator: TA98(1,8-DNP), Metabolic Activation: NONE, Method: PREINCUBATION); “inactive; negative” (Test System: AMES SALMONELLA TYPHIMURIUM, Strain/Indicator: TA98(1,8-DNP), Metabolic Activation: RAT, LIVER, S-9, PCB, Method: PREINCUBATION); “inactive; negative” (Test System: AMES SALMONELLA TYPHIMURIUM, Strain/Indicator: TA98(NR), Metabolic Activation: NONE, Method: PREINCUBATION); “inactive; negative” (Test System: AMES SALMONELLA TYPHIMURIUM, Strain/Indicator: TA98(NR), Metabolic Activation: RAT, LIVER, S-9, PCB, Method: PREINCUBATION); “inactive; negative” (Test System: AMES SALMONELLA TYPHIMURIUM, Strain/Indicator: TA98, Metabolic Activation: NONE, Method: PREINCUBATION); “inactive; negative” (Test System: AMES SALMONELLA TYPHIMURIUM, Strain/Indicator: TA98, Metabolic Activation: RAT, LIVER, S-9, PCB, Method: PREINCUBATION). Moreover, the mutagenic call is “inactive; negative” (Test System: AMES SALMONELLA TYPHIMURIUM, Strain/Indicator: TA100(1,8-DNP), Metabolic Activation: RAT, LIVER, S-9, PCB, Method: PREINCUBATION); “inactive; negative” (Test System: AMES SALMONELLA TYPHIMURIUM, Strain/Indicator: TA100(NR), Metabolic Activation: NONE, Method: PREINCUBATION); “inactive; negative” (Test System: AMES SALMONELLA TYPHIMURIUM, Strain/Indicator: TA100(NR), Metabolic Activation: RAT, LIVER, S-9, PCB, Method: PREINCUBATION); “active; positive” (Test System: AMES SALMONELLA TYPHIMURIUM, Strain/Indicator: TA100, Metabolic Activation: NONE, Method: PREINCUBATION); “inactive; negative” (Test System: AMES SALMONELLA TYPHIMURIUM, Strain/Indicator: YG1020, Metabolic Activation: RAT, LIVER, S-9, PCB, Method: PREINCUBATION); “inactive; negative” (Test System: AMES SALMONELLA TYPHIMURIUM, Strain/Indicator: YG1021, Metabolic Activation: RAT, LIVER, S-9, PCB, Method: PREINCUBATION). The mutagenic call runs as follows: (Test System: AMES SALMONELLA TYPHIMURIUM, Strain/Indicator: YG1024, Metabolic Activation: NONE, Method: PREINCUBATION) “active; positive”; (Test System: AMES SALMONELLA TYPHIMURIUM, Strain/Indicator: YG1024, Metabolic Activation: RAT, LIVER, S-9, PCB, Method: PREINCUBATION) “active; positive”; (Test System: AMES SALMONELLA TYPHIMURIUM, Strain/Indicator: YG1025, Metabolic Activation: NONE, Method: PREINCUBATION) “inactive; negative”; (Test System: AMES SALMONELLA TYPHIMURIUM, Strain/Indicator: YG1025, Metabolic Activation: RAT, LIVER, S-9, PCB, Method: PREINCUBATION) “inactive; negative”; (Test System: AMES SALMONELLA TYPHIMURIUM, Strain/Indicator: YG1026, Metabolic Activation: NONE, Method: PREINCUBATION) “inactive; negative”; (Test System: AMES SALMONELLA TYPHIMURIUM, Strain/Indicator: YG1026, Metabolic Activation: RAT, LIVER, S-9, PCB, Method: PREINCUBATION) “inactive; negative”. Moreover, the mutagenic call was “active; positive” (Test System: AMES SALMONELLA TYPHIMURIUM, Strain/Indicator: YG1029, Metabolic Activation: NONE, Method: PREINCUBATION) and “active; positive” (Test System: AMES SALMONELLA TYPHIMURIUM, Strain/Indicator: YG1029, Metabolic Activation: RAT, LIVER, S-9, PCB, Method: PREINCUBATION).

For `O=c1cccc2c1ccc1[nH]c3ccc4ccccc4c3cc12`, the mutagenic call was “inactive; negative” (Test System: AMES SALMONELLA TYPHIMURIUM, Strain/Indicator: TA100, Metabolic Activation: GUINEA PIG, LIVER, S-9, 3-METHYLCHOLANTHRENE, Method: STANDARD PLATE) and “inactive; negative” (Test System: CHINESE HAMSTER V-79, Strain/Indicator: V-79/6-THIOGUANINE, Metabolic Activation: GUINEA PIG, LIVER, S-9, 3-METHYLCHOLANTHRENE).

Consider `Cc1cc(-c2cc3c(cc2F)n2c(=O)n(O)c(=O)cc2n3C2CC2)cc(C)n1`, for which the mutagenic call under setting [1] was “active; positive”.

Regarding `COC(=O)c1ccco1`, the mutagenic call under setting [2] was “inactive; negative” and the mutagenic call under setting [3] was “inactive; negative”.

For the molecule `Brc1cc(-c2cc(Br)c(Br)c(Br)c2)cc(Br)c1Br`, the mutagenic call (Test System: CHINESE HAMSTER V-79, Strain/Indicator: V-79 (HGPRT)/6-THIOGUANINE, Metabolic Activation: NONE) is “inactive; negative”.

As to `BrCc1c2ccccc2c2ccc3cccc4ccc1c2c43`, the mutagenic call runs as follows: under setting [2], “active; positive”; under setting [3], “active; positive”.

With `CCc1c(N)ccc2ccccc12`, the mutagenic call was “inactive; negative” under setting [2]; “active; positive” (Test System: AMES SALMONELLA TYPHIMURIUM, Strain/Indicator: TA98, Metabolic Activation: RAT LIVER S-9, AROCLOR, Method: STANDARD PLATE); “inactive; negative” under setting [3]; “active; positive” (Test System: AMES SALMONELLA TYPHIMURIUM, Strain/Indicator: TA100, Metabolic Activation: RAT LIVER S-9, AROCLOR, Method: STANDARD PLATE).

For `CCc1c2ccccc2c(C)c2c1ccc1ccccc12`, the mutagenic call by setting is: (Test System: AMES SALMONELLA TYPHIMURIUM, Strain/Indicator: TA98, Method: STANDARD PLATE) “inactive; negative”; (Test System: AMES SALMONELLA TYPHIMURIUM, Strain/Indicator: TA100, Metabolic Activation: RAT, LIVER, S-9, PHENOBARBITAL, Method: STANDARD PLATE) “inactive; negative”; (Test System: AMES SALMONELLA TYPHIMURIUM, Strain/Indicator: TA100, Method: STANDARD PLATE) “inactive; negative”.

With `CCn1c(N)nc2c3cccnc3cc(C)c21`, the mutagenic call (Test System: AMES SALMONELLA TYPHIMURIUM, Strain/Indicator: TA98, Metabolic Activation: RAT, LIVER, S-9, AROCLOR 1254, Method: PREINCUBATION) was “active; positive”.

Take `CC(C)(C)c1cc(Cc2cc(C(C)(C)C)c(O)c(C(C)(C)C)c2)cc(C(C)(C)C)c1O`: the mutagenic call (Test System: AMES SALMONELLA TYPHIMURIUM, Strain/Indicator: TA97, Metabolic Activation: NONE, Method: STANDARD PLATE) was “inactive; negative”; the mutagenic call (Test System: AMES SALMONELLA TYPHIMURIUM, Strain/Indicator: TA97, Metabolic Activation: S-9, Method: STANDARD PLATE) is “inactive; negative”; the mutagenic call under setting [2] is “inactive; negative”; the mutagenic call under setting [4] is “inactive; negative”; the mutagenic call under setting [3] was “inactive; negative”; the mutagenic call under setting [5] is “inactive; negative”. For the same molecule, the mutagenic call under setting [1] is “inactive; negative”; the mutagenic call (Test System: AMES SALMONELLA TYPHIMURIUM, Strain/Indicator: TA102, Metabolic Activation: S-9, Method: STANDARD PLATE) is “inactive; negative”; the mutagenic call (Test System: E.COLI, Strain/Indicator: WP2 (PKM101), Metabolic Activation: NONE, Method: STANDARD PLATE) was “inactive; negative”; the mutagenic call (Test System: E.COLI, Strain/Indicator: WP2 (PKM101), Metabolic Activation: S-9, Method: STANDARD PLATE) was “inactive; negative”.

For `ONc1ccc2ccccc2c1`, the mutagenic call is “active; positive” under setting [2]; “active; positive” under setting [4]; “active; positive” under setting [3]; “active; positive” under setting [5]; “active; positive” (Test System: AMES SALMONELLA TYPHIMURIUM, Strain/Indicator: TA1535, Metabolic Activation: NONE, Method: STANDARD PLATE); “active; positive” (Test System: AMES SALMONELLA TYPHIMURIUM, Strain/Indicator: TA1538, Metabolic Activation: NONE, Method: STANDARD PLATE).

Take `CC(=O)Nc1ccc(-c2ccc(NO)cc2)cc1`: the mutagenic call (Test System: CHINESE HAMSTER OVARY, Strain/Indicator: CHO-K1-BH4 (HGPRT), Metabolic Activation: NONE, Method: SUSPENSION) is “active; positive”.
